Among the data in US20180186742A1, “PICOLINAMIDES AS FUNGICIDES” (Dow AgroSciences LLC, priority 2017, published 2018) are pest or weed control values, retold here.

Assay type in all cases: in vivo
The subject of assay [1] is Zymoseptoria tritici. Description: Leaf blotch of wheat (SEPTTR), disease control on wheat seedlings. The conditions noted are these: low volume application at 121.5 g/H. In outline: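 Yuma wheat seedlings with the first leaf fully emerged were sprayed to run-off with compound in acetone plus nine volumes of water containing 110 ppm Triton X-100; track-spray tests used EC formulations with 0.1% Trycol 5941. Z. tritici inoculation came before or after treatment, followed by 100% RH dew periods and a 20 °C greenhouse. Percent control was calculated from severity versus untreated plants.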

Assay [2] relates to Puccinia triticina. The assay can be described thus: Wheat brown rust (PUCCRT), disease control on wheat seedlings. The conditions noted are these: low volume application at 121.5 g/H. In a few lines: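 Compounds in acetone, diluted with nine volumes of water containing 110 ppm Triton X-100, sprayed to run-off on first-leaf Yuma wheat seedlings; track-spray tests used EC formulations with 0.1% Trycol 5941. Puccinia triticina spores applied before or after treatment. Overnight dark dew room at 22° C, 100% humidity, then greenhouse at 24° C.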

For assay [3], the system named is Phakopsora pachyrhizi. The assay can be described thus: Asian soybean rust (PHAKPA), disease control on soybean seedlings. The conditions noted are these: High volume application at 25 ppm. In outline:
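Two-week-old Williams 82 soybean seedlings were sprayed to run-off with compound in acetone/water (1:9) containing 0.011% Tween 20. Inoculation was 3 days before (curative) or 1 day after (protectant) treatment, followed by 24 h dark dew at 22 °C, 100% RH, then 23 °C; disease severity scored on sprayed leaves.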

Where [4] appears, read: 24 h, 1 Day Protectant, read-out: SEPTTR disease control, 1DP, LV activity.
The mark [5] stands for this setting: 72 h, 3 Day Curative, read-out: SEPTTR disease control, 3DC, LV activity.
[6] abbreviates: 24 h, 1 Day Protectant, read-out: PUCCRT disease control, 1DP, LV activity.
[7] abbreviates: 72 h, 3 Day Curative, read-out: PUCCRT disease control, 3DC, LV activity.
Where [8] appears, read: 24 h, 1 Day Protectant, read-out: PHAKPA 1DP disease control rating.
Setting [9] is: 72 h, 3 Day Curative, read-out: PHAKPA 3DC disease control rating.

Read-outs that look alike come from different tables or passages of the source.

Consider `COc1cc(F)ccc1[C@@H](C1CCCC1)[C@H](C)OC(=O)[C@H](C)NC(=O)c1nccc(OC)c1OCOC(C)=O` [Compound 234], for which the pest or weed control at 121.5 g/ha in assay [1] (setting [4]) is < 80%; in assay [1] (setting [5]), < 80%; in assay [2] (setting [6]), > 80%; in assay [2] (setting [7]) it was < 80%. The pest or weed control at 25 ppm in assay [3] (setting [8]) is > 80%; in assay [3] (setting [9]), < 0%.

Take `COc1cc(F)ccc1[C@H](C1CCCC1)[C@H](C)OC(=O)[C@H](C)NC(=O)c1nccc(OC)c1OCOC(C)=O` [Compound 235]: the pest or weed control at 121.5 g/ha was < 80% in assay [1] (setting [4]), < 80% in assay [1] (setting [5]), > 80% in assay [2] (setting [6]) and < 80% in assay [2] (setting [7]). Besides, the pest or weed control at 25 ppm is > 80% in assay [3] (setting [8]) and < 80% in assay [3] (setting [9]).

Turning to `COc1cc(F)ccc1[C@H](C1CCC1)[C@H](C)OC(=O)[C@H](C)NC(=O)c1nccc(OC)c1OCOC(C)=O` [Compound 236], the pest or weed control at 121.5 g/ha in assay [1] (setting [4]), in assay [1] (setting [5]), in assay [2] (setting [6]) and in assay [2] (setting [7]) was < 80% throughout. The pest or weed control at 25 ppm in assay [3] (setting [8]) was > 80%; in assay [3] (setting [9]) it was < 80%.

As to `COc1cc(F)ccc1[C@H](C(C)C)[C@H](C)OC(=O)[C@H](C)NC(=O)c1nccc(OC)c1OCOC(C)=O` [Compound 237], the pest or weed control at 121.5 g/ha in assay [1] (setting [4]) is < 80%; in assay [1] (setting [5]) it was < 80%; in assay [2] (setting [6]), > 80%; in assay [2] (setting [7]) it was > 80%. The pest or weed control at 25 ppm in assay [3] (setting [8]) and in assay [3] (setting [9]) was > 80% throughout.

With `COCCC(=O)Oc1c(OC)ccnc1C(=O)N[C@@H](C)C(=O)O[C@@H](C)[C@H](c1ccc(F)cc1OC)C1CCC1` [Compound 238], the pest or weed control at 121.5 g/ha in assay [1] (setting [4]), in assay [1] (setting [5]), in assay [2] (setting [6]) and in assay [2] (setting [7]) was < 80% throughout. For the same compound, the pest or weed control at 25 ppm in assay [3] (setting [8]) and in assay [3] (setting [9]) was < 80% throughout.

For `COCCC(=O)Oc1c(OC)ccnc1C(=O)N[C@@H](C)C(=O)O[C@@H](C)[C@H](c1ccc(F)cc1OC)C(C)C` [Compound 239], the pest or weed control at 121.5 g/ha is > 80% in assay [1] (setting [4]), < 80% in assay [1] (setting [5]), > 80% in assay [2] (setting [6]) and > 80% in assay [2] (setting [7]). The pest or weed control at 25 ppm in assay [3] (setting [8]) and in assay [3] (setting [9]) was > 80% in each case.

As for `COc1ccnc(C(=O)N[C@@H](C)C(=O)O[C@@H](C)[C@@H](c2ccc(C)cc2C)C2CCC2)c1OCOC(C)=O` [Compound 240], the pest or weed control at 121.5 g/ha in assay [1] (setting [4]) was < 80%; in assay [1] (setting [5]), > 80%; in assay [2] (setting [6]), > 80%; in assay [2] (setting [7]) it was > 80%. The results for the pest or weed control at 25 ppm in assay [3] (setting [8]) and in assay [3] (setting [9]) were > 80% and < 80%, respectively.

`COc1ccnc(C(=O)N[C@@H](C)C(=O)O[C@@H](C)[C@@H](c2ccc(C)cc2C)C2CCC2)c1OC(C)=O` [Compound 241]: the pest or weed control at 121.5 g/ha was < 0% in assay [1] (setting [4]), > 80% in assay [1] (setting [5]), < 80% in assay [2] (setting [6]) and < 80% in assay [2] (setting [7]). Further, the pest or weed control at 25 ppm in assay [3] (setting [8]) and in assay [3] (setting [9]) was < 80% throughout.

As for `COc1ccnc(C(=O)N[C@@H](C)C(=O)O[C@@H](C)[C@H](c2ccc(Cl)cc2)C(C)C)c1OC(C)=O` [Compound 242], the pest or weed control at 121.5 g/ha in assay [1] (setting [4]), in assay [1] (setting [5]), in assay [2] (setting [6]) and in assay [2] (setting [7]) was > 80% throughout. The pest or weed control at 25 ppm in assay [3] (setting [8]) is > 80%; in assay [3] (setting [9]), < 80%.

Regarding `COc1ccnc(C(=O)N[C@@H](C)C(=O)O[C@@H](C)[C@H](c2ccc(C)c(F)c2)C(C)C)c1OC(C)=O` [Compound 243], the pest or weed control at 121.5 g/ha in assay [1] (setting [4]) is < 0%; in assay [1] (setting [5]), < 80%; in assay [2] (setting [6]), > 80%; in assay [2] (setting [7]), < 80%. The values for the pest or weed control at 25 ppm in assay [3] (setting [8]) and in assay [3] (setting [9]) were > 80% and < 80%, respectively.

In the case of `COc1ccnc(C(=O)N[C@@H](C)C(=O)O[C@@H](C)[C@H](c2ccc(F)c(F)c2)C(C)C)c1OC(C)=O` [Compound 244], the pest or weed control at 121.5 g/ha is > 80% in assay [1] (setting [4]), < 80% in assay [1] (setting [5]), > 80% in assay [2] (setting [6]) and > 80% in assay [2] (setting [7]). Further, the figures for the pest or weed control at 25 ppm in assay [3] (setting [8]) and in assay [3] (setting [9]) were > 80% and < 80%, respectively.

As for `COc1ccnc(C(=O)NCC(=O)O[C@@H](C)[C@H](c2ccc(F)cc2C)C(C)C)c1OC(C)=O` [Compound 346], the pest or weed control at 121.5 g/ha is < 80% in assay [1] (setting [4]), < 80% in assay [1] (setting [5]), > 80% in assay [2] (setting [6]) and > 80% in assay [2] (setting [7]). The pest or weed control at 25 ppm in assay [3] (setting [8]) was > 80%; in assay [3] (setting [9]), < 80%.

For the compound `COc1ccnc(C(=O)N[C@H](C(=O)O[C@@H](C)[C@H](c2ccc(F)cc2C)C(C)C)C(C)C)c1OC(C)=O` [Compound 347], the pest or weed control at 121.5 g/ha was > 80% in assay [1] (setting [4]), > 80% in assay [1] (setting [5]), > 80% in assay [2] (setting [6]) and < 80% in assay [2] (setting [7]). Also, the pest or weed control at 25 ppm in assay [3] (setting [8]) and in assay [3] (setting [9]) was > 80% in each case.

Take `CC[C@H](C)[C@H](NC(=O)c1nccc(OC)c1OC(C)=O)C(=O)O[C@@H](C)[C@H](c1ccc(F)cc1C)C(C)C` [Compound 348]: the pest or weed control at 121.5 g/ha in assay [1] (setting [4]) is < 80%; in assay [1] (setting [5]), < 80%; in assay [2] (setting [6]), > 80%; in assay [2] (setting [7]), < 80%. Besides, the pest or weed control at 25 ppm in assay [3] (setting [8]) is > 80%; in assay [3] (setting [9]), < 80%.

Take `COc1ccnc(C(=O)N[C@@H](CC(C)C)C(=O)O[C@@H](C)[C@H](c2ccc(F)cc2C)C(C)C)c1OC(C)=O` [Compound 349]: the pest or weed control at 121.5 g/ha was < 80% in assay [1] (setting [4]), < 80% in assay [1] (setting [5]), > 80% in assay [2] (setting [6]) and < 80% in assay [2] (setting [7]). For the same compound, the values for the pest or weed control at 25 ppm in assay [3] (setting [8]) and in assay [3] (setting [9]) were > 80% and < 80%, respectively.

As for `COCCC(=O)Oc1c(OC)ccnc1C(=O)NCC(=O)O[C@@H](C)[C@H](c1ccc(F)cc1C)C(C)C` [Compound 350], the pest or weed control at 121.5 g/ha is < 80% in assay [1] (setting [4]), < 80% in assay [1] (setting [5]), > 80% in assay [2] (setting [6]) and > 80% in assay [2] (setting [7]). In addition, the pest or weed control at 25 ppm in assay [3] (setting [8]) and in assay [3] (setting [9]) was > 80% throughout.

As for `COCCC(=O)Oc1c(OC)ccnc1C(=O)N[C@H](C(=O)O[C@@H](C)[C@H](c1ccc(F)cc1C)C(C)C)C(C)C` [Compound 351], the pest or weed control at 121.5 g/ha in assay [1] (setting [4]) is > 80%; in assay [1] (setting [5]), < 80%; in assay [2] (setting [6]) it was > 80%; in assay [2] (setting [7]), < 80%. Also, the pest or weed control at 25 ppm was > 80% in assay [3] (setting [8]) and < 80% in assay [3] (setting [9]).

`CC[C@H](C)[C@H](NC(=O)c1nccc(OC)c1OC(=O)CCOC)C(=O)O[C@@H](C)[C@H](c1ccc(F)cc1C)C(C)C` [Compound 352]: the pest or weed control at 121.5 g/ha in assay [1] (setting [4]) is < 80%; in assay [1] (setting [5]) it was < 80%; in assay [2] (setting [6]) it was > 80%; in assay [2] (setting [7]), < 80%. The pest or weed control at 25 ppm was > 80% in assay [3] (setting [8]) and < 80% in assay [3] (setting [9]).

On to `COCCC(=O)Oc1c(OC)ccnc1C(=O)N[C@@H](CC(C)C)C(=O)O[C@@H](C)[C@H](c1ccc(F)cc1C)C(C)C` [Compound 353], for which the pest or weed control at 121.5 g/ha in assay [1] (setting [4]), in assay [1] (setting [5]), in assay [2] (setting [6]) and in assay [2] (setting [7]) was < 80% in each case. The pest or weed control at 25 ppm in assay [3] (setting [8]) is > 80%; in assay [3] (setting [9]) it was < 80%.

Take `COc1ccnc(C(=O)N[C@@H](C)C(=O)O[C@@H](C)[C@H](c2cc(C)ccc2C)C(C)C)c1OC(C)=O` [Compound 358]: the pest or weed control at 121.5 g/ha was < 80% in assay [1] (setting [4]), < 80% in assay [1] (setting [5]), > 80% in assay [2] (setting [6]) and < 80% in assay [2] (setting [7]). Also, the pest or weed control at 25 ppm in assay [3] (setting [8]) was > 80%; in assay [3] (setting [9]), < 80%.
